pEC50: −log10 of the molar value.
Assays:
human GPR142 = target: T1, human GPR142 (Homo sapiens, UniProt Q7Z601); test: GPR142 agonist effect as measured by IP-1 assay (IP-One HTRF); type: cell-based
T1 construct: expressed in transfected cells; host or cells: HEK293 (kept under G418 selection)
T1 sequence (Q7Z601 1-462): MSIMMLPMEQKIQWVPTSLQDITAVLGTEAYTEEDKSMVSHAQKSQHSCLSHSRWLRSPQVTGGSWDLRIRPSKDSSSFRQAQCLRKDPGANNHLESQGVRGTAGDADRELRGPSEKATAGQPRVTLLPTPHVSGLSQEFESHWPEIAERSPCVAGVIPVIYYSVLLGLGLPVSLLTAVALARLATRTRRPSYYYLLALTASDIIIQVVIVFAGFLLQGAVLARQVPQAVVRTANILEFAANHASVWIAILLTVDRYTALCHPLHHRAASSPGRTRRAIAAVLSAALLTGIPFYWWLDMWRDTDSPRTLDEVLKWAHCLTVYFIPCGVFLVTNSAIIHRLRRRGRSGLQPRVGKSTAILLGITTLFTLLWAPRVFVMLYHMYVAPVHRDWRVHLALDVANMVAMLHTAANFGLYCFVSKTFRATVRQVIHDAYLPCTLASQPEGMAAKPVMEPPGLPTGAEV
Protocol: Biological Assays GPR142 Agonist Effect as Measured by IP-1 Assay
HEK293 cells expressing human GPR142 are maintained in DMEM supplemented with 10% FBS and 800 μg/ml G418 (Geneticin®) at 37° C. and 5% CO2. Plate the cells in 384 well plates at 5000 cells per well and allow 18 hrs for attachment. Add the test compound at varying concentrations ranging from 30 μM to 1 nM. Incubate the cells for 1 hr. IP-1 measurements are performed using an IP-One HTRF® assay kit (Cisbio) according to manufacturer's protocol using an assay buffer containing 1×HBSS (+Ca, +Mg), 0.1% BSA, 50 mM LiCl and 20 mM HEPES, pH 7.2. Stop the reaction by the addition of IP1-d2 (IP-1 coupled to an organic HTRF acceptor) followed by cryptate solution (http://www.htrf.com/usa/htrf-chemistry). Incubate the plates at 25° C. for 1 hr. Read the fluorescence in an Envision instrument at 665 nm and 620 nm wavelength. Calculate the ratio of 665 nm/620 nm fluorescence and convert to IP-1 levels using an IP-1 standard curve. The data is fit to a 4 parameter-fit logistics to determine EC50 values.

GPR142 = target: T2, GPR142 (Mus musculus, UniProt Q7TQN9); test: Intraperitoneal glucose tolerance test (IPGTT); type: in vivo; conditions: male C57BL/6 mice, oral dose 90 min prior to 2 g/kg i.p. glucose challenge
T2 construct: from tissue; host or cells: whole animal, male C57BL/6 mice
T2 sequence (Q7TQN9 1-365): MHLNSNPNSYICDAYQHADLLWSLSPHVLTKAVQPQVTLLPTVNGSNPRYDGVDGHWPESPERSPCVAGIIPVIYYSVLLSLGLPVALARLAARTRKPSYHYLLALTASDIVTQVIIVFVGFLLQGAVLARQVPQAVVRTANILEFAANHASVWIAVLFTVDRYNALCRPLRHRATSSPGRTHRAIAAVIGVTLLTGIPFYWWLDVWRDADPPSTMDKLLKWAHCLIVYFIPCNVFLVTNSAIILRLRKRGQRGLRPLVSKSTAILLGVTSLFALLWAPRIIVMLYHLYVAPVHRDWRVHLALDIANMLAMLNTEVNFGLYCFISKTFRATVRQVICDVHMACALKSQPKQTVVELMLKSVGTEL
Excerpt: Intraperitoneal Glucose Tolerance Tests (IPGTT)
The IPGTT assay is used to examine the ability of a compound to activate GPR142 in vivo resulting in anti-diabetic efficacy, i.e. reduction in plasma glucose levels. Male C57BL/6 mice (8-10 weeks of age) are fed normal rodent chow diet and water ad libitum. On the night before the study, fast the animals overnight in clean cages. On the morning of the study, orally dose the animals with either vehicle or a test compound at the indicated doses 90 min prior to the glucose challenge (2 g/kg) by intraperitoneal injection. Determine the blood glucose levels from tail bleeds taken immediately prior to compound dosing (−90 min) and 0, 15, 30, and 60 min after glucose challenge using handheld glucometers. Use the blood glucose profile from t=0 to t=60 min to calculate an area under the curve (AUC) for each treatment. Calculate the percent glucose lowering. The AUC is calculated for each treatment group with respect to the AUC of vehicle group. A compound with a reduction in glucose AUC (P<0.05) is considered positive in the assay.

Cc1ncn(C)c1-c1nnc([C@H]2CCC[C@@H](N(C)C(=O)c3cccc(Cl)c3)C2)[nH]1 [Example 1]
pEC50 (human GPR142; HEK293 cells expressing human GPR142, 1 hr incubation, IP-1 HTRF, read-out: hGPR142 IP1 EC50): 7.84 | hGPR142 IP1 relative efficacy (human GPR142; HEK293 cells expressing human GPR142, IP-1 HTRF): 110% | IPGTT outcome (reduction in glucose AUC, P<0.05, is positive) (GPR142): positive | ED50 (glucose AUC lowering in IPGTT) (GPR142; AUC t=0 to 60 min): 0.25 mpk

— US11214562B2, “Cyclohexyl benzamide compounds” (Eli Lilly and Company, priority 2016, dated 2022)
